Measured values taken from article PMC10203128, “Structures of human SGLT in the occluded state reveal conformational changes during sugar transport” (Nature Communications, 2023).

Legend:
hSGLT2 = biological target: T1, hSGLT2 (Homo sapiens, UniProt P31639); assay: cryo-EM structure of the complex at […] Å ([…] AMG); type: binding
T1 construct: gene SLC5A2; hSGLT2GFP-MAP17nb, in lipid nanodisc; with MAP17
T1 sequence (P31639 1-672): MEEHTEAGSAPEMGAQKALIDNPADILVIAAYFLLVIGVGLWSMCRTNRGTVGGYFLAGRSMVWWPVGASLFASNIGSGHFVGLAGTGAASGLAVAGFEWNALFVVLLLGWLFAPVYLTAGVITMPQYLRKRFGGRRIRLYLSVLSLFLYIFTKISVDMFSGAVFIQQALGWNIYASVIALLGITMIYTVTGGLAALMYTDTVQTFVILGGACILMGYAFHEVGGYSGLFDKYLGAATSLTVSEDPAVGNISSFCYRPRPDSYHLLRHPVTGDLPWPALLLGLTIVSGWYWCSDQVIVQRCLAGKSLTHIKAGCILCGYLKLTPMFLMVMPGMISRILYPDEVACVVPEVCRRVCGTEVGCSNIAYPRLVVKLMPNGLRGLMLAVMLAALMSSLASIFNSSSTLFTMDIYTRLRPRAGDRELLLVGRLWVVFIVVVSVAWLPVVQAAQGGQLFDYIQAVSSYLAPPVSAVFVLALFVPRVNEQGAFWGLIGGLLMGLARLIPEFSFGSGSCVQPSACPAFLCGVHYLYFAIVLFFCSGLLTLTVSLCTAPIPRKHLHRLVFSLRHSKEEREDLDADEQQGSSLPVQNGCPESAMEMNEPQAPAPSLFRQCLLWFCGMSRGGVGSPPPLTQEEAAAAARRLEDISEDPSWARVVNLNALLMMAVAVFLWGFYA
T1 sequence (Q13113 1-114 partner): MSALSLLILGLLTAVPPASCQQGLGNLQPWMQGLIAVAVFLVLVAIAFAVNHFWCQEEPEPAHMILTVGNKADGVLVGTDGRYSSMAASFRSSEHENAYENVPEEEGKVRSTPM

hSGLT1 = biological target: T2, hSGLT1 (Homo sapiens, UniProt P13866); assay: cryo-EM structure of the complex at […] Å; IC50 from inhibition of […]-NBD-glucose uptake in cells; type: cell-based
T2 construct: gene SLC5A1; hSGLT1GFP-MAP17nb (three-joint-tethering construct), in lipid nanodisc; with MAP17
T2 sequence (P13866 1-664): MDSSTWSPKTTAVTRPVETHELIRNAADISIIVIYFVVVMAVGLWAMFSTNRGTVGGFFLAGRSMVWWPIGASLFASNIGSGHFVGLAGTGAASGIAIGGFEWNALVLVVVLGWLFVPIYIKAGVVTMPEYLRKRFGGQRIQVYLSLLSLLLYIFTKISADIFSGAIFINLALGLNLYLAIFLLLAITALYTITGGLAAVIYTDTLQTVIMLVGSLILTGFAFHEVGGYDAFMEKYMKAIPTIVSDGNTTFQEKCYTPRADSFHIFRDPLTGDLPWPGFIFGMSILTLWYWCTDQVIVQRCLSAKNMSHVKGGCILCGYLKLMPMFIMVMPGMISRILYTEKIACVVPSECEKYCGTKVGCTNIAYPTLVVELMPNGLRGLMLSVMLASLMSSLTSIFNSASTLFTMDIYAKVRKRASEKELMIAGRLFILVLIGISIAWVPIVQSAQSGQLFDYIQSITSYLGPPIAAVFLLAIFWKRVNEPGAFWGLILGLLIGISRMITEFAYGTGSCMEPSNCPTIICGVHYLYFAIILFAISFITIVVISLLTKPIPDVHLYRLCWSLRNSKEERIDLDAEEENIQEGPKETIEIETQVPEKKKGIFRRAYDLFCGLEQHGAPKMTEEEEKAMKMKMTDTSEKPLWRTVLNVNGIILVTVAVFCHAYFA
T2 sequence (Q13113 1-114 partner): T1 sequence (Q13113 1-114 partner)

Structure (SMILES) | cryo-EM structure of the complex at 3.33 Å (100 mM AMG) (hSGLT2) | IC50 (hSGLT1)
CO[C@H]1O[C@H](CO)C(O)[C@H](O)[C@H]1O (stereo in doubt) [AMG, methyl alpha-D-galactopyranoside] | We observed that AMG is bound in an occluded substrate-binding site | 
OC[C@H]1OC(O)[C@H](O)[C@@H](O)[C@@H]1F (stereo partly drawn) [4D4FDG, 4-deoxy-4-fluoro-D-glucose] |  | ~70 µM
